One block for each molecule: values may come before it.
Experiments:
[1] = test system: dissociated rat P5-9 CGN cultures; experiment: Cerebellar granule neuron (CGN) neurite outgrowth assay; format: cell-based; settings: P7 rat CGNs
Experimental: Nitric acid-treated, 15-mm round German glass coverslips are coated with P-Orn in pH 6-8.5 borate buffer (at approximately 50 μg/ml) for about 1 hr at 37° C. and 5% CO2. CSPGs (at approximately 1 μg/ml) or polysaccharides enriched in the CS-A, CS-C, or CS-E sulfation motifs (at approximately 1 μg/ml) are coated on the P-Orn-coated coverslips overnight at 37° C. and 5% CO2. Cerebella from P5-9 Sprague Dawley rats are dissected, purified as described above, and cultured on the coated coverslips at a cell density of about 200 cells/mm^2. Neurons are grown in DMEM/F12, 1% FBS, and N1 supplement for about 24 hr.
In one example, inhibitors against MEK (PD98059, 25 μM; Calbiochem), EGFR (AG1478, 15 nM; Calbiochem), ROCK (Y27632, 5 μM; Calbiochem) and JNK (JNK Inhibitor II, 10 μM; Calbiochem) are added in solution at the start of culturing, and neurons are grown for 24 hr. For neurite outgrowth experiments from p75 knockout mice, cerebella from P5-7 mice, either C57BL/6 wild-type or p75−/− knockout mice, are dissected and purified as described above. Neurons are plated at a density of 200-300 cells/mm2 and cultured for about 24 hr. Cells are then fixed in 4% PFA/10% sucrose, immunostained with neuronal specific anti-class III β-tubulin antibody (TUJ1; Covance), and evaluated for neurite outgrowth. Neurons are imaged using a Nikon TE2000-S fluorescent microscope and quantified using the NIH software Image J. Statistical analysis is performed using the one-way ANOVA; n=50-200 cells per experiment.
P7 rat CGNs are grown for 24 hours on CS-E (1 μg/ml) in the presence of the CS-E antibody (CS-E Ab; 10 μg/ml).

[2] = test system: Retinal ganglion cell axons; experiment: Optic nerve regeneration assay; settings: counted at 125-μm intervals from the crush site
Experimental: At 1-14 days post injury, mice are given an overdose of pentobarbital and are transcardially perfused with 4% PFA. Eyeballs still attached with the optic nerve are dissected and post-fixed in 4% PFA overnight. Following cryoprotection with 30% sucrose in PBS, tissues are embedded in O.C.T. and serial sectioned for 5-20 μm along the longitudinal direction of the nerve. For immunofluorescence labeling, the sections are washed with PBS, pre-incubated in a blocking buffer (approximately 1% BSA, 0.3%TX-100 in PBS) and followed by sequential incubations with primary antibodies, including mouse anti-CS-E (1:200), goat-anti-CTB (1:4000), or rabbit anti-IβIII-tubulin antibodies (Invitrogen). […] The retinal cryosections are mounted with Vectashield and visualized under a Nikon fluorescence microscope. To quantify the number of CTB-positive regenerating axons, the number of regenerating axons is counted at 125 μm stepwise from the crush site of the optic nerve. The total number of regenerating axons is estimated. To quantify the number of surviving retinal ganglion cells, the total number of βIII-tubulin positive cells is counted in at least 3 retinal sections per retina.
(1.7 mg/ml) antibody treatment placed around the crush site of the nerve are studied. […] The extent of axonal regrowth is assessed 2 weeks after injury.

[3] = Oligosaccharide microarray; format: binding
Experimental: Ozonolysis of the anomeric allyl group and linkage of CS compounds 1-41,2 to 1,2-(bisaminooxy)ethane3 proceeds as follows: oligosaccharide (0.51 μmol) is dissolved in MeOH (500 μL) and cooled to −78° C. O3 is bubbled through the reaction until a blue color persists (1 min). The reaction is then purged with N2 until colorless, quenched with Ph3P beads (3 mg), and gradually warmed to rt over 12 h. The reaction is filtered and the product concentrated to afford the desired aldehyde as a white solid. The aldehyde (0.51 μmol) is then reacted for 14 h at rt with 1,2-(bisaminooxy)ethane hydrochloride (1.4 mg, 15 μmol) that has been dissolved in H2O (100 μL) and pH adjusted to 5.0 with 1 M NaOH. The resulting oxime product is purified using a SepPak C18 column (500 mg, H2O) and Sephadex G-10 (CS-E disaccharide, H2O) or Sephadex G-25 (tetrasaccharides, H2O) to afford a white solid in quantitative yield (0.51 μmol). CS-A aminooxy: ESI MS: m/z: calculated for C32H48N4Na3O31S2: 1117.1; found 1117.0. CS-C aminooxy: ESI MS: m/z: calculated for C32H48N4Na3O31S2: 1117.1; found 1117.0. CS-E aminooxy: ESI MS: m/z: calculated for C32H46N4Na5O37S4: 1321.0; found 1321.0. CS-E di amminooxy: ESI MS: m/z: calculated for C18H28N3Na2O20S2: 716.1; found 716.0. […]

[4] = Pull-down with biotinylated CS-E; format: binding; settings: COS-7 cell lysates, immunoblot
Source text: Pull down assays can be useful for identifying proteins which bind to CS (e.g. CS-A, CS-C, or CS-E). Pull down assays can also be used for identifying agents that disrupt the binding between CS and a known binding partner. Full-length human p75 cDNA (amino acids 1-427; Open Biosystems) is ligated into a pcDNA3 vector (Invitrogen), modified to fuse an HA tag to the 5′ end of the insert. Human NgR (amino acids 27-473; imaGenes) is ligated into a modified pAPtag-5 vector (GenHunter) which fuses a secretion signal sequence and a c-myc tag to the 3′ end of the insert. COS-7 cells are transfected with either NgR-myc, p75-HA, or both using the Lipofectamine (Invitrogen) method. Cells are lysed about 2 days after transfection with 0.5-2% Triton X-100 in PBS containing a protease inhibitor mixture (Roche) by rocking for 15-90 min at 4° C. The lysates are clarified by centrifugation at 5-25,000 rpm for 1-30 min.
Biotin is attached to the free amino group of the residual core peptides of CS-C and CS-E polysaccharides (Seikagaku). […]
Biotinylated CS-C or CS-E (approximately 280 μg each) in 100-500 μl of PBS is added to streptavidin agarose resin (about 140 μl; Pierce) and incubated at room temperature for about 1 hr. […] NgR-myc and p75-HA are detected by immunoblotting with myc-tag (Cell Signaling) or HA-tag (Sigma) antibodies.

Molecule: chondroitinaseABC
inhibition of neurite outgrowth after digestion of CS-E polysaccharides [1]: small extent of residual inhibition
number of regenerating axons compared with control IgG [2]: significantly more regenerating axons

binding to CS-E polysaccharides, oligosaccharide microarray [3]: bind to CS-E polysaccharides
B1: OMgp: oligodendrocyte myelin protein (OMgp) (protein, UniProt P23515 25-417, looked up)
Oligodendrocyte-myelin …: ICPLQCICTERHRHVDCSGRNLSTLPSGLQENIIHLNLSYNHFTDLHNQLTQYTNLRTLDISNNRLESLPAHLPRSLWNMSAANNNIKLLDKSDTAYQWNLKYLDVSKNMLEKVVLIKNTLRSLEVLNLSSNKLWTVPTNMPSKLHIVDLSNNSLTQILPGTLINLTNLTHLYLHNNKFTFIPDQSFDQLFQLQEITLYNNRWSCDHKQNITYLLKWMMETKAHVIGTPCSTQISSLKEHNMYPTPSGFTSSLFTVSGMQTVDTINSLSVVTQPKVTKIPKQYRTKETTFGATLSKDTTFTSTDKAFVPYPEDTSTETINSHEAAAATLTIHLQDGMVTNTSLTSSTKSSPTPMTLSITSGMPNNFSEMPQQSTTLNLWREETTTNVKTPLPS

B2: Full-length EphB3: full-length Ephrin receptor B3 (protein, UniProt P54753 1-998, looked up)
chain: MARARPPPPPSPPPGLLPLLPPLLLLPLLLLPAGCRALEETLMDTKWVTSELAWTSHPESGWEEVSGYDEAMNPIRTYQVCNVRESSQNNWLRTGFIWRRDVQRVYVELKFTVRDCNSIPNIPGSCKETFNLFYYEADSDVASASSPFWMENPYVKVDTIAPDESFSRLDAGRVNTKVRSFGPLSKAGFYLAFQDQGACMSLISVRAFYKKCASTTAGFALFPETLTGAEPTSLVIAPGTCIPNAVEVSVPLKLYCNGDGEWMVPVGACTCATGHEPAAKESQCRPCPPGSYKAKQGEGPCLPCPPNSRTTSPAASICTCHNNFYRADSDSADSACTTVPSPPRGVISNVNETSLILEWSEPRDLGGRDDLLYNVICKKCHGAGGASACSRCDDNVEFVPRQLGLTERRVHISHLLAHTRYTFEVQAVNGVSGKSPLPPRYAAVNITTNQAAPSEVPTLRLHSSSGSSLTLSWAPPERPNGVILDYEMKYFEKSEGIASTVTSQMNSVQLDGLRPDARYVVQVRARTVAGYGQYSRPAEFETTSERGSGAQQLQEQLPLIVGSATAGLVFVVAVVVIAIVCLRKQRHGSDSEYTEKLQQYIAPGMKVYIDPFTYEDPNEAVREFAKEIDVSCVKIEEVIGAGEFGEVCRGRLKQPGRREVFVAIKTLKVGYTERQRRDFLSEASIMGQFDHPNIIRLEGVVTKSRPVMILTEFMENCALDSFLRLNDGQFTVIQLVGMLRGIAAGMKYLSEMNYVHRDLAARNILVNSNLVCKVSDFGLSRFLEDDPSDPTYTSSLGGKIPIRWTAPEAIAYRKFTSASDVWSYGIVMWEVMSYGERPYWDMSNQDVINAVEQDYRLPPPMDCPTALHQLMLDCWVRDRNLRPKFSQIVNTLDKLIRNAASLKVIASAQSGMSQPLLDRTVPDYTTFTTVGDWLDAIKMGRYKESFVSAGFASFDLVAQMTAEDLLRIGVTLAGHQKKILSSIQDMRLQMNQTLPVQV
modifications: full-length
notes: full-length Ephrin receptor B3
pull-down by CS-E [4]: is pulled down
